Results reported in ChEMBL document CHEMBL1201861, “Genomics of Drug Sensitity in Cancer screening data, Wellcome Trust Sanger Institute”.

Assays:
Assay in all cases: cells
Format in all cases: functional, cell-based, Homo sapiens
LB771-HNC = details: Homo sapiens, LB771-HNC;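 note: growth inhibition of LB771-HNC human cells, read out with a cell viability assay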
Description: SANGER: Inhibition of human LB771-HNC cell growth in a cell viability assay.

KARPAS-45 = details: Homo sapiens, KARPAS-45;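 note: inhibition of cell line growth, read out through a viability assay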
Description: SANGER: Inhibition of human KARPAS-45 cell growth in a cell viability assay.

KG-1 = details: Homo sapiens, KG-1;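 note: growth inhibition of KG-1 cells, read out by a cell viability assay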
Description: SANGER: Inhibition of human KG-1 cell growth in a cell viability assay.

CAS-1 = details: Homo sapiens, CAS-1;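 note: growth inhibition of CAS-1 cells, measured with a cell viability assay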
Description: SANGER: Inhibition of human CAS-1 cell growth in a cell viability assay.

LU-134-A = details: Homo sapiens, LU-134-A
Description: SANGER: Inhibition of human LU-134-A cell growth in a cell viability assay.

COLO-829 = details: Homo sapiens, COLO-829
Description: SANGER: Inhibition of human COLO-829 cell growth in a cell viability assay.

SK-MEL-1 = details: Homo sapiens, SK-MEL-1;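 note: growth inhibition of human SK-MEL-1 cells, read out by a cell viability assay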
Description: SANGER: Inhibition of human SK-MEL-1 cell growth in a cell viability assay.

NB10 = details: Homo sapiens, NB10;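 note: growth inhibition of NB10 cells, read out by a cell viability assay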
Description: SANGER: Inhibition of human NB10 cell growth in a cell viability assay.

BB49-HNC = details: Homo sapiens, BB49-HNC;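 note: cell viability assay read-out, reported as inhibition of BB49-HNC cell growth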
Description: SANGER: Inhibition of human BB49-HNC cell growth in a cell viability assay.

OCUB-M = details: Homo sapiens, OCUB-M;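 note: growth inhibition of the cancer cell line, read out through a cell viability assay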
Description: SANGER: Inhibition of human OCUB-M cell growth in a cell viability assay.

A4-Fuk = details: Homo sapiens, A4-Fuk;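 note: growth inhibition of A4-Fuk cells, read out by a cell viability assay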
Description: SANGER: Inhibition of human A4-Fuk cell growth in a cell viability assay.

SF-539 = details: Homo sapiens, SF-539;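 note: Read-out is a cell viability assay, with IC50 reflecting inhibition of cell growth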
Description: SANGER: Inhibition of human SF539 cell growth in a cell viability assay.

NOMO-1 = details: Homo sapiens, NOMO-1;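 note: growth inhibition of human NOMO-1 cells measured by a cell viability assay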
Description: SANGER: Inhibition of human NOMO-1 cell growth in a cell viability assay.

IST-MEL1 = details: Homo sapiens, IST-MEL1;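 note: growth inhibition of the cell line, read out with a cell viability assay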
Description: SANGER: Inhibition of human IST-MEL1 cell growth in a cell viability assay.

TGBC1TKB = details: Homo sapiens, TGBC1TKB;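 note: growth inhibition of TGBC1TKB cells, read out by a cell viability assay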
Description: SANGER: Inhibition of human TGBC1TKB cell growth in a cell viability assay.

KE-37 = details: Homo sapiens, KE-37;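 note: growth inhibition of KE-37 cells, read out with a cell viability assay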
Description: SANGER: Inhibition of human KE-37 cell growth in a cell viability assay.

EW-24 = details: Homo sapiens, EW-24;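 note: human EW-24 cancer cell line, growth inhibition read out via a cell viability assay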
Description: SANGER: Inhibition of human EW-24 cell growth in a cell viability assay.

RXF 393 = details: Homo sapiens, RXF 393;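 note: growth inhibition of human RXF 393 cells, read out with a cell viability assay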
Description: SANGER: Inhibition of human RXF393 cell growth in a cell viability assay.

QIMR-WIL = details: Homo sapiens, QIMR-WIL;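 note: growth inhibition of QIMR-WIL cells, read out with a cell viability assay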
Description: SANGER: Inhibition of human QIMR-WIL cell growth in a cell viability assay.

ETK-1 = details: Homo sapiens, ETK-1;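 note: growth inhibition of human ETK-1 cells, read out with a cell viability assay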
Description: SANGER: Inhibition of human ETK-1 cell growth in a cell viability assay.

LS-513 = details: Homo sapiens, LS-513
Description: SANGER: Inhibition of human LS-513 cell growth in a cell viability assay.

8-MG-BA = details: Homo sapiens, 8-MG-BA;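 note: growth inhibition of 8-MG-BA cells, read out with a cell viability assay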
Description: SANGER: Inhibition of human 8-MG-BA cell growth in a cell viability assay.

KURAMOCHI = details: Homo sapiens, KURAMOCHI;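 note: growth inhibition of KURAMOCHI cells, read out with a cell viability assay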
Description: SANGER: Inhibition of human KURAMOCHI cell growth in a cell viability assay.

MS-1 = details: Homo sapiens, MS-1;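 note: growth inhibition of MS-1 cells, read out by cell viability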
Description: SANGER: Inhibition of human MS-1 cell growth in a cell viability assay.

MOLT-4 = details: Homo sapiens, MOLT-4;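 note: growth inhibition of MOLT-4 cells, determined with a cell viability readout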
Description: SANGER: Inhibition of human MOLT-4 cell growth in a cell viability assay.

NCI-H1650 = details: Homo sapiens, NCI-H1650;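 note: growth inhibition of human NCI-H1650 cells measured by a cell viability assay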
Description: SANGER: Inhibition of human NCI-H1650 cell growth in a cell viability assay.

Mo = details: Homo sapiens, Mo
Description: SANGER: Inhibition of human Mo-T cell growth in a cell viability assay.

NOS-1 = details: Homo sapiens, NOS-1;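 note: growth inhibition of the human NOS-1 cell line, read out with a cell viability assay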
Description: SANGER: Inhibition of human NOS-1 cell growth in a cell viability assay.

RPMI-8866 = details: Homo sapiens, RPMI-8866
Description: SANGER: Inhibition of human RPMI-8866 cell growth in a cell viability assay.

SF-268 = details: Homo sapiens, SF-268;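 note: growth inhibition of SF-268 cells determined with a cell viability assay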
Description: SANGER: Inhibition of human SF268 cell growth in a cell viability assay.

KNS-81-FD = details: Homo sapiens, KNS-81-FD;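 note: growth inhibition of KNS-81-FD cells, read out with a cell viability assay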
Description: SANGER: Inhibition of human KNS-81-FD cell growth in a cell viability assay.

TE-6 = details: Homo sapiens, TE-6;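 note: growth inhibition of TE-6 cells, read out with a cell viability assay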
Description: SANGER: Inhibition of human TE-6 cell growth in a cell viability assay.

BB30-HNC = details: Homo sapiens, BB30-HNC;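 note: growth inhibition of the cultured cell line, read out by a cell viability assay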
Description: SANGER: Inhibition of human BB30-HNC cell growth in a cell viability assay.

HCE-4 = details: Homo sapiens, HCE-4;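 note: cell viability assay measuring inhibition of growth in the human HCE-4 cell line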
Description: SANGER: Inhibition of human HCE-4 cell growth in a cell viability assay.

NCI-H82 = details: Homo sapiens, NCI-H82;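 note: growth inhibition of NCI-H82 cells, measured with a cell viability readout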
Description: SANGER: Inhibition of human NCI-H82 cell growth in a cell viability assay.

U-266 = details: Homo sapiens, U-266
Description: SANGER: Inhibition of human U-266 cell growth in a cell viability assay.

NCI-H1770 = details: Homo sapiens, NCI-H1770;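 note: growth inhibition of NCI-H1770 cells determined with a viability readout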
Description: SANGER: Inhibition of human NCI-H1770 cell growth in a cell viability assay.

JVM-2 = details: Homo sapiens, JVM-2;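 note: growth inhibition of JVM-2 cells determined by a cell viability assay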
Description: SANGER: Inhibition of human JVM-2 cell growth in a cell viability assay.

SCH = details: Homo sapiens, SCH;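 note: growth inhibition of human SCH cells, read out in a cell viability assay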
Description: SANGER: Inhibition of human SCH cell growth in a cell viability assay.

LS-1034 = details: Homo sapiens, LS-1034
Description: SANGER: Inhibition of human LS-1034 cell growth in a cell viability assay.

COLO-668 = details: Homo sapiens, COLO-668
Description: SANGER: Inhibition of human COLO-668 cell growth in a cell viability assay.

RS4-11 = details: Homo sapiens, RS4-11;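 note: growth inhibition of RS4-11 cells, read out by a cell viability assay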
Description: SANGER: Inhibition of human RS4-11 cell growth in a cell viability assay.

DSH1 = details: Homo sapiens, DSH1;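 note: growth inhibition of human DSH1 cells, measured with a cell viability readout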
Description: SANGER: Inhibition of human DSH1 cell growth in a cell viability assay.

ES6 = details: Homo sapiens, ES6;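 note: growth inhibition of human ES6 cells, read out with a cell viability assay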
Description: SANGER: Inhibition of human ES6 cell growth in a cell viability assay.

HCE-T = details: Homo sapiens, HCE-T;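 note: cell viability assay read-out, reporting inhibition of HCE-T cell growth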
Description: SANGER: Inhibition of human HCE-T cell growth in a cell viability assay.

EW-13 = details: Homo sapiens, EW-13;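 note: growth inhibition of EW-13 cells, read out with a cell viability assay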
Description: SANGER: Inhibition of human EW-13 cell growth in a cell viability assay.

NCI-H1395 = details: Homo sapiens, NCI-H1395;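 note: cell viability assay read-out quantifying reduced proliferation of human NCI-H1395 cells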
Description: SANGER: Inhibition of human NCI-H1395 cell growth in a cell viability assay.

KM-H2 = details: Homo sapiens, KM-H2;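 note: growth inhibition of KM-H2 cells, read out by a cell viability assay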
Description: SANGER: Inhibition of human KM-H2 cell growth in a cell viability assay.

CO[C@H]1C[C@@H]2CC[C@@H](C)[C@@](O)(O2)C(=O)C(=O)N2CCCC[C@H]2C(=O)O[C@H]([C@H](C)C[C@@H]2CC[C@@H](OC(=O)C(C)(CO)CO)[C@H](OC)C2)CC(=O)[C@H](C)/C=C(\C)[C@@H](O)[C@@H](OC)C(=O)[C@H](C)C[C@H](C)/C=C/C=C/C=C/1C [TEMSIROLIMUS]
IC50 (LB771-HNC): > 0.2 µM
IC50 (KARPAS-45): 0.0513 µM
IC50 (KG-1): 0.0129 µM
IC50 (CAS-1): > 0.2 µM
IC50 (LU-134-A): 0.0289 µM
IC50 (COLO-829): > 0.2 µM
IC50 (SK-MEL-1): > 0.2 µM
IC50 (NB10): > 0.2 µM
IC50 (BB49-HNC): > 0.2 µM
IC50 (OCUB-M): > 0.2 µM
IC50 (A4-Fuk): 0.0818 µM
IC50 (SF-539): 0.121 µM
IC50 (NOMO-1): 0.168 µM
IC50 (IST-MEL1): 0.123 µM
IC50 (TGBC1TKB): 0.137 µM
IC50 (KE-37): 0.0165 µM
IC50 (EW-24): > 0.2 µM
IC50 (RXF 393): 0.0157 µM
IC50 (QIMR-WIL): 0.00571 µM
IC50 (ETK-1): 0.0318 µM
IC50 (LS-513): > 0.2 µM
IC50 (8-MG-BA): > 0.2 µM
IC50 (KURAMOCHI): > 0.2 µM
IC50 (MS-1): > 0.2 µM
IC50 (MOLT-4): 0.00431 µM
IC50 (NCI-H1650): > 0.2 µM
IC50 (Mo): > 0.2 µM
IC50 (NOS-1): > 0.2 µM
IC50 (RPMI-8866): 0.0314 µM
IC50 (SF-268): > 0.2 µM
IC50 (KNS-81-FD): 0.138 µM
IC50 (TE-6): 0.189 µM
IC50 (BB30-HNC): > 0.2 µM
IC50 (HCE-4): > 0.2 µM
IC50 (NCI-H82): 0.0288 µM
IC50 (U-266): 0.151 µM
IC50 (NCI-H1770): > 0.2 µM
IC50 (JVM-2): > 0.2 µM
IC50 (SCH): > 0.2 µM
IC50 (LS-1034): > 0.2 µM
IC50 (COLO-668): > 0.2 µM
IC50 (RS4-11): 0.00845 µM
IC50 (DSH1): > 0.2 µM
IC50 (ES6): > 0.2 µM
IC50 (HCE-T): 0.0492 µM
IC50 (EW-13): 0.0145 µM
IC50 (NCI-H1395): > 0.2 µM
IC50 (KM-H2): > 0.2 µM

CS(=O)(=O)c1ccc(C(=O)Nc2ccc(Cl)c(-c3ccccn3)c2)c(Cl)c1 [VISMODEGIB]
IC50 (LB771-HNC): > 10 µM
IC50 (KARPAS-45): > 10 µM
IC50 (KG-1): > 10 µM
IC50 (CAS-1): > 10 µM
IC50 (LU-134-A): > 10 µM
IC50 (COLO-829): > 10 µM
IC50 (SK-MEL-1): > 10 µM
IC50 (NB10): > 10 µM
IC50 (BB49-HNC): > 10 µM
IC50 (OCUB-M): > 10 µM
IC50 (A4-Fuk): > 10 µM
IC50 (SF-539): > 10 µM
IC50 (NOMO-1): > 10 µM
IC50 (IST-MEL1): > 10 µM
IC50 (TGBC1TKB): > 10 µM
IC50 (KE-37): > 10 µM
IC50 (EW-24): > 10 µM
IC50 (RXF 393): > 10 µM
IC50 (QIMR-WIL): > 10 µM
IC50 (ETK-1): > 10 µM
IC50 (LS-513): > 10 µM
IC50 (8-MG-BA): > 10 µM
IC50 (KURAMOCHI): > 10 µM
IC50 (MS-1): > 10 µM
IC50 (MOLT-4): > 10 µM
IC50 (NCI-H1650): > 10 µM
IC50 (Mo): > 10 µM
IC50 (NOS-1): > 10 µM
IC50 (RPMI-8866): > 10 µM
IC50 (SF-268): > 10 µM
IC50 (KNS-81-FD): > 10 µM
IC50 (TE-6): > 10 µM
IC50 (BB30-HNC): > 10 µM
IC50 (HCE-4): > 10 µM
IC50 (NCI-H82): > 10 µM
IC50 (U-266): > 10 µM
IC50 (NCI-H1770): > 10 µM
IC50 (JVM-2): > 10 µM
IC50 (SCH): > 10 µM
IC50 (LS-1034): > 10 µM
IC50 (COLO-668): > 10 µM
IC50 (RS4-11): > 10 µM
IC50 (DSH1): > 10 µM
IC50 (ES6): > 10 µM
IC50 (HCE-T): 1.32 µM
IC50 (EW-13): > 10 µM
IC50 (NCI-H1395): > 10 µM
IC50 (KM-H2): > 10 µM

Nc1cccc2c1CN(C1CCC(=O)NC1=O)C2=O (centres undefined) [LENALIDOMIDE]
IC50 (LB771-HNC): 2.15 µM
IC50 (KARPAS-45): > 5 µM
IC50 (KG-1): > 5 µM
IC50 (CAS-1): > 5 µM
IC50 (LU-134-A): > 5 µM
IC50 (COLO-829): > 5 µM
IC50 (SK-MEL-1): > 5 µM
IC50 (NB10): > 5 µM
IC50 (BB49-HNC): > 5 µM
IC50 (OCUB-M): > 5 µM
IC50 (A4-Fuk): > 5 µM
IC50 (SF-539): > 5 µM
IC50 (NOMO-1): > 5 µM
IC50 (IST-MEL1): > 5 µM
IC50 (TGBC1TKB): > 5 µM
IC50 (KE-37): > 5 µM
IC50 (EW-24): > 5 µM
IC50 (RXF 393): > 5 µM
IC50 (QIMR-WIL): > 5 µM
IC50 (ETK-1): > 5 µM
IC50 (LS-513): > 5 µM
IC50 (8-MG-BA): > 5 µM
IC50 (KURAMOCHI): > 5 µM
IC50 (MS-1): > 5 µM
IC50 (MOLT-4): > 5 µM
IC50 (NCI-H1650): > 5 µM
IC50 (Mo): > 5 µM
IC50 (NOS-1): > 5 µM
IC50 (RPMI-8866): > 5 µM
IC50 (SF-268): > 5 µM
IC50 (KNS-81-FD): > 5 µM
IC50 (TE-6): > 5 µM
IC50 (BB30-HNC): > 5 µM
IC50 (HCE-4): > 5 µM
IC50 (NCI-H82): > 5 µM
IC50 (U-266): > 5 µM
IC50 (NCI-H1770): > 5 µM
IC50 (JVM-2): > 5 µM
IC50 (SCH): > 5 µM
IC50 (LS-1034): > 5 µM
IC50 (COLO-668): > 5 µM
IC50 (RS4-11): > 5 µM
IC50 (DSH1): > 5 µM
IC50 (ES6): > 5 µM
IC50 (HCE-T): > 5 µM
IC50 (EW-13): > 5 µM
IC50 (NCI-H1395): > 5 µM
IC50 (KM-H2): > 5 µM
